Results reported in patent US9993494B2, “Compositions and methods for treating fibrotic disease” (eFFECTOR Therapeutics, Inc., priority 2014, dated 2018).

System: normal human lung fibroblasts
Experiment: Ribosomal profiling: translational efficiency in TGFβ-treated fibroblasts
Type: cell-based
Details: TGFβ-treated fibroblasts
Experimental: Ribosomal profiling allows for measurement of changes in transcription and translation on a genome-wide basis accompanying TGFβ-dependent transformation of fibroblasts to myofibroblasts. Ribosomal profiles of the TGFβ-treated fibroblasts from Example 1 (about 6×10^6 cells/10 cm plate) were prepared and analyzed for changes in translational efficiencies with respect to potential disease-associated cellular changes accompanying this TGFβ-induced transformation.
Briefly, cells were washed with cold PBS supplemented with cycloheximide and lysed with 1× mammalian cell lysis buffer for 10 minutes on ice. Lysates were clarified by centrifugation for 10 minutes at 14,000 rpm and supernatants were collected. Cell lysates were processed to generate ribosomal protected fragments and total mRNA according to the instructions included with the ARTseq Ribosome Profiling Kit (Illumina, San Diego, Calif.). Sequencing of total RNA (RNA) and of ribosome-protected fragments of RNA (RPF) was carried out using RNA-Seq methodology according to the manufacturer's instructions (Illumina). To analyze the ribosomal profiles, RNA-Seq reads were processed with tools from the FASTX-Toolkit (fastq_quality_trimmer, fastx_clipper and fastx_trimmer). Unprocessed and processed reads were evaluated for a variety of quality measures using FastQC, and processed reads were mapped to the human genome using TopHat (see, e.g., Trapnell et al., Bioinformatics 25:1105, 2009). Gene-by-gene assessment of the number of fragments strictly and uniquely mapping to the coding region of each gene was conducted using HTSeq-count, a component of the HTSeq package. […] Genes with low counts in either RPF or RNA were excluded from differential analyses. Pathway and network analyses of differential data were conducted using Ingenuity Pathway Analysis (IPA).

`Cc1cc(C2CCCCC2)n(O)c(=O)c1.NCCO` [CPX, ciclopirox oloamine] was tested, and the “renormalizing the translational profile of NECAB3” value (ENSG00000125967) was “− (− = <0.9)”, the “renormalizing the translational profile of COX7C” value (ENSG00000127184) was “− (− = <0.9)” and the “renormalizing the translational profile of LIF” value (ENSG00000128342) was “− (− = <0.9)”. For the same molecule, the “renormalizing the translational profile of MTUS1” value (ENSG00000129422) was “− (− = <0.9)”, the “renormalizing the translational profile of ARHGEF6” value (ENSG00000129675) was “− (− = <0.9)” and the “renormalizing the translational profile of RPL36” value (ENSG00000130255) was “− (− = <0.9)”. For the same molecule, the “renormalizing the translational profile of GDF15” value (ENSG00000130513) was “− (− = <0.9)”, the “renormalizing the translational profile of ASS1” value (ENSG00000130707) was “− (− = <0.9)” and the “renormalizing the translational profile of EIF2S3” value (ENSG00000130741) was “− (− = <0.9)”. The “renormalizing the translational profile of RPL27” value (ENSG00000131469) was “− (− = <0.9)”, the “renormalizing the translational profile of MATN3” value (ENSG00000132031) was “− (− = <0.9)” and the “renormalizing the translational profile of PPARG” value (ENSG00000132170) was “− (− = <0.9)”. The “renormalizing the translational profile of KDM6B” value (ENSG00000132510) was “− (− = <0.9)”, the “renormalizing the translational profile of RARRES3” value (ENSG00000133321) was “− (− = <0.9)” and the “renormalizing the translational profile of BIVM” value (ENSG00000134897) was “+ (+ = 0.9 to 1.5)”. For the same molecule, the “renormalizing the translational profile of ATP5G2” value (ENSG00000135390) was “− (− = <0.9)”, the “renormalizing the translational profile of KRT7” value (ENSG00000135480) was “++ (++ = 1.5 to 2.0)” and the “renormalizing the translational profile of HNRNPA1” value (ENSG00000135486) was “− (− = <0.9)”. The “renormalizing the translational profile of IL6” value (ENSG00000136244) was “− (− = <0.9)”, the “renormalizing the translational profile of RPL35” value (ENSG00000136942) was “− (− = <0.9)” and the “renormalizing the translational profile of NOV” value (ENSG00000136999) was “− (− = <0.9)”. The “renormalizing the translational profile of IER3” value (ENSG00000137331) was “− (− = <0.9)”, the “renormalizing the translational profile of DDX60” value (ENSG00000137628) was “− (− = <0.9)” and the “renormalizing the translational profile of RPLP1” value (ENSG00000137818) was “− (− = <0.9)”. The “renormalizing the translational profile of PAQR5” value (ENSG00000137819) was “+ (+ = 0.9 to 1.5)”, the “renormalizing the translational profile of AOX1” value (ENSG00000138356) was “− (− = <0.9)” and the “renormalizing the translational profile of FGF5” value (ENSG00000138675) was “− (− = <0.9)”. For the same molecule, the “renormalizing the translational profile of PDE5A” value (ENSG00000138735) was “− (− = <0.9)”, the “renormalizing the translational profile of GAS2L3” value (ENSG00000139354) was “− (− = <0.9)” and the “renormalizing the translational profile of DIAPH3” value (ENSG00000139734) was “− (− = <0.9)”. The “renormalizing the translational profile of MYO19” value (ENSG00000141140) was “− (− = <0.9)”, the “renormalizing the translational profile of RPL13A” value (ENSG00000142541) was “− (− = <0.9)” and the “renormalizing the translational profile of RPL11” value (ENSG00000142676) was “− (− = <0.9)”. For the same molecule, the “renormalizing the translational profile of ACTA1” value (ENSG00000143632) was “+ (+ = 0.9 to 1.5)”, the “renormalizing the translational profile of PLEKHA6” value (ENSG00000143850) was “+ (+ = 0.9 to 1.5)” and the “renormalizing the translational profile of RPL32” value (ENSG00000144713) was “− (− = <0.9)”. For the same molecule, the “renormalizing the translational profile of RPL37” value (ENSG00000145592) was “− (− = <0.9)”, the “renormalizing the translational profile of BTF3” value (ENSG00000145741) was “− (− = <0.9)” and the “renormalizing the translational profile of HIGD2A” value (ENSG00000146066) was “− (− = <0.9)”. The “renormalizing the translational profile of CREB5” value (ENSG00000146592) was “− (− = <0.9)”, the “renormalizing the translational profile of DENND2A” value (ENSG00000146966) was “− (− = <0.9)” and the “renormalizing the translational profile of RPL10” value (ENSG00000147403) was “− (− = <0.9)”. For the same molecule, the “renormalizing the translational profile of EIF3H” value (ENSG00000147677) was “− (− = <0.9)”, the “renormalizing the translational profile of RPL7A” value (ENSG00000148303) was “− (− = <0.9)” and the “renormalizing the translational profile of EIF3M” value (ENSG00000149100) was “− (− = <0.9)”. For the same molecule, the “renormalizing the translational profile of FAU” value (ENSG00000149806) was “− (− = <0.9)”, the “renormalizing the translational profile of CCDC102B” value (ENSG00000150636) was “− (− = <0.9)” and the “renormalizing the translational profile of FRMD4A” value (ENSG00000151474) was “+ (+ = 0.9 to 1.5)”. For the same molecule, the “renormalizing the translational profile of HOMER1” value (ENSG00000152413) was “− (− = <0.9)”, the “renormalizing the translational profile of PLEKHH2” value (ENSG00000152527) was “− (− = <0.9)” and the “renormalizing the translational profile of ANKH” value (ENSG00000154122) was “− (− = <0.9)”. For the same molecule, the “renormalizing the translational profile of ABCA6” value (ENSG00000154262) was “− (− = <0.9)”, the “renormalizing the translational profile of OBSCN” value (ENSG00000154358) was “+ (+ = 0.9 to 1.5)” and the “renormalizing the translational profile of ADAMTS5” value (ENSG00000154736) was “+ (+ = 0.9 to 1.5)”. The “renormalizing the translational profile of OXA1L” value (ENSG00000155463) was “− (− = <0.9)”, the “renormalizing the translational profile of C9orf85” value (ENSG00000155621) was “− (− = <0.9)” and the “renormalizing the translational profile of RPL30” value (ENSG00000156482) was “− (− = <0.9)”. The “renormalizing the translational profile of EEF1A1” value (ENSG00000156508) was “− (− = <0.9)”, the “renormalizing the translational profile of NRG1” value (ENSG00000157168) was “− (− = <0.9)” and the “renormalizing the translational profile of ADAMTS4” value (ENSG00000158859) was “− (− = <0.9)”. For the same molecule, the “renormalizing the translational profile of RPL8” value (ENSG00000161016) was “− (− = <0.9)”, the “renormalizing the translational profile of RPL26” value (ENSG00000161970) was “− (− = <0.9)” and the “renormalizing the translational profile of RPL29” value (ENSG00000162244) was “− (− = <0.9)”. For the same molecule, the “renormalizing the translational profile of CAMK2N1” value (ENSG00000162545) was “− (− = <0.9)”, the “renormalizing the translational profile of IGFBP7” value (ENSG00000163453) was “− (− = <0.9)” and the “renormalizing the translational profile of RPL22L1” value (ENSG00000163584) was “− (− = <0.9)”.
